Values of other authors in patent publication US20190298722A1, “USE OF AN INHIBITOR OF THE DE NOVO SYNTHESIS OF PURINES, IN THE TREATMENT OF ADENYLOSUCCINATE LYASE DEFICIENCY” (ASSISTANCE PUBLIQUE-HOPITAUX DE PARIS, priority 2016, published 2019).

How the values were obtained:
ADSL deficiency patients = details: child; not confirmed by other studies (Jurecka et al. 2015); cited from earlier work
brains of rats = details: infusion into the brains of rats; cited from earlier work
ADSL deficiency patient = details: one patient, after 9 months of treatment; cited from earlier work

| Structure (SMILES) | motor coordination and seizure control (ADSL deficiency patients) | other results |
| --- | --- | --- |
| O=C[C@H](O)[C@H](O)[C@H](O)CO [D-ribose] | improvement | – |
| O=c1ccn([C@@H]2O[C@H](CO)[C@@H](O)[C@H]2O)c(=O)[nH]1 [uridine] | improvement | – |
| Nc1c(C(=O)N[C@@H](CC(=O)O)C(=O)O)ncn1[C@@H]1O[C@H](CO)[C@@H](O)[C@H]1O [SAICAr, succinylaminoimidazole carboxamide riboside] | – | neuronal damage (brains of rats): significant neuronal damage |
| C[S+](CC[C@H](N)C(=O)[O-])C[C@H]1O[C@@H](n2cnc3c(N)ncnc32)[C@H](O)[C@@H]1O (stereo partly shown) [SAMe, S-adenosyl-1-methionine] | – | clinical and biological parameters (ADSL deficiency patient): no improvement |
